Values of other authors in US9353170B2, “Long-acting transient polymer conjugates of exendin” (SANOFI-AVENTIS DEUTSCHLAND GMBH, priority 2007, dated 2016).
Where no end group is shown, it is not given here. PEG 2 kDa = polyethylene glycol, 2 kDa

Legend:
[1] = incubation in a human plasma model
db/db mice = settings: 10 μg/mouse subcutaneously
normoglycaemic mice = settings: subcutaneous injection

Substance: [2-Sulfo-9-fluorenylmethoxycarbonyl]3-exendin-4 [FMS3-exendin-4]
- time at which cleavage is complete [1]: 40 h
- sustained reduction in blood glucose (db/db mice): 50%
- time of return of blood glucose to baseline value (db/db mice): 45 h

Substance: PEG40 kDa-FMS-exendin-4: transiently PEGylated Exendin-4 based on a traceless FMS-linker (Shechter et al.)
- duration of maintained glucose lowering effect (normoglycaemic mice): 24 h
- glucose lowering effect (normoglycaemic mice): 30%

Substance: N-terminal PEGylation of GLP-1 with only PEG2kDa: GLP-1 N-terminally PEGylated with PEG2kDa (Lee et al. 2005) ({PEG 2 kDa}-HAEGTFTSDVSSYLEGQAAKEFIAWLVKGR; not fully specified (C-terminus); ends and bridges not checked; UniProt P01275 98-127, looked up)
- activity on stimulating insulin release (rat pancreas islets): nearly completely abolished
